Measurements from patent US4332891A, “Process for the production of antibiotic Cephamycin C” (Otsuka Pharmaceutical Co., Ltd., priority 1979, dated 1982).
≈ marks a conversion by molar mass, not a printed value.

Columns and labels:
[1] = tested on: Bacillus subtilis PCI 219; test: Antimicrobial spectrum (MIC); assay type: cell-based; conditions: PCI219
From the text: (§1) The antimicrobial spectra to various microorganisms of the Cephamycin C produced by the process of this invention are shown as minimum inhibitory concentrations (MIC) in Table 4.

Esherichia coli NIHJ = test: Antimicrobial spectrum (MIC); assay type: cell-based
From the text: as §1

Proteus mirabilis 1287 = test: Antimicrobial spectrum (MIC); assay type: cell-based
From the text: as §1

[2] = tested on: Proteus vulgaris IID OX-19; test: Antimicrobial spectrum (MIC); assay type: cell-based; conditions: IIDOX19
From the text: as §1

[3] = tested on: Salmonella typhi 0-901 NCTC 8393; test: Antimicrobial spectrum (MIC); assay type: cell-based; conditions: Salmonella enterica
From the text: as §1

Sarcina lutea PCI 1001 = test: Antimicrobial spectrum (MIC); assay type: cell-based; conditions: Micrococcus luteus, PCI1001
From the text: as §1

[4] = tested on: Staphylococcus aureus FDA 209P; test: Antimicrobial spectrum (MIC); assay type: cell-based; conditions: FDA209P
From the text: as §1

[5] = tested on: Staphylococcus aureus Newman; test: Antimicrobial spectrum (MIC); assay type: cell-based
From the text: as §1

Solubility = assay type: physicochemical

COC1(NC(=O)CCCC(N)C(=O)O)C(=O)N2C(C(=O)O)=C(COC(N)=O)CS[C@@H]21 (some centres unmarked) [Cephamycin C, 7-(5-amino-5-carboxyvalerylamino)-3-carbamoyloxymethyl-7-methoxy-3-cephem-4-carboxylic acid]
MIC [1]: 15.6 µg/mL (≈ 34.9 µM)
MIC (Esherichia coli NIHJ): 15.6 µg/mL (≈ 34.9 µM)
MIC (Proteus mirabilis 1287): 7.8 µg/mL (≈ 17.5 µM)
MIC [2]: 7.8 µg/mL (≈ 17.5 µM)
MIC [3]: 3.9 µg/mL (≈ 8.74 µM)
MIC (Sarcina lutea PCI 1001): 15.6 µg/mL (≈ 34.9 µM)
MIC [4]: 250 µg/mL (≈ 560 µM)
MIC [5]: 250 µg/mL (≈ 560 µM)
Solubility (Solubility; in dimethylsulfoxide): slightly soluble in dimethylsulfoxide
Solubility (Solubility; in ethanol): sparingly soluble in ethanol
Solubility (Solubility; in water): well soluble in water
